The text below walks through data of ChEMBL document CHEMBL1140642, “Human serum albumin binding assay based on displacement of a non selective fluorescent inhibitor” (Bioorg Med Chem Lett, 2007).

In series [1] the target is T1, Albumin (Homo sapiens, UniProt P02768). Kind of series: Displacement of [C13]-methyl oleic acid from warfarin site of human serum albumin by NMR.
Series [2] deals with T1, Albumin. Kind of series: Displacement of [C13]-methyl oleic acid from ibuprofen site of human serum albumin by NMR.

T1 sequence (P02768 whole entry): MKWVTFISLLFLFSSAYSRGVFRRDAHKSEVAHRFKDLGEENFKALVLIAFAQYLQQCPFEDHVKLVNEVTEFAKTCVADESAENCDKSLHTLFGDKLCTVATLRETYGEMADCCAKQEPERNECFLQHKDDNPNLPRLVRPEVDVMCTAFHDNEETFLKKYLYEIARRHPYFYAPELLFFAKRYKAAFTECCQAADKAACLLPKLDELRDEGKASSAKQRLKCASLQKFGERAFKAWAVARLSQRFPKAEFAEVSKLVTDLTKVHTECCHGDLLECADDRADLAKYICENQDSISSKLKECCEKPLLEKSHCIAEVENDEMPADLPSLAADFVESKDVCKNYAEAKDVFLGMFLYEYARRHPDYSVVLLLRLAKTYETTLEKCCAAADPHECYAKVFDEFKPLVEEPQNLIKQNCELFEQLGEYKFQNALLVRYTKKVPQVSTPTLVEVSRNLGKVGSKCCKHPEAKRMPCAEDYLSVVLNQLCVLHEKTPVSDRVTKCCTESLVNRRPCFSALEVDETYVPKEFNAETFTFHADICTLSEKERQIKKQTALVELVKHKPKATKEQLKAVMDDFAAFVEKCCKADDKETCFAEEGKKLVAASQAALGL

With `Cn1c(/C=C/c2ccc(C#N)cc2C(=O)O)cc2ccccc21`, the outcome at Albumin [1] and on Albumin [2] was Active.
